Changes are numbered by the printed parent chain. Each block holds one molecule with its values, some of them ahead of it.
Key:
ACR-23(I301N) = target: T1, ACR-23(I301N) (Caenorhabditis elegans, UniProt G5EG88, I301N); experiment: two-electrode voltage clamp in Xenopus oocytes expressing ACR-23; type: cell-based
T1 sequence (G5EG88 20-545 I301N): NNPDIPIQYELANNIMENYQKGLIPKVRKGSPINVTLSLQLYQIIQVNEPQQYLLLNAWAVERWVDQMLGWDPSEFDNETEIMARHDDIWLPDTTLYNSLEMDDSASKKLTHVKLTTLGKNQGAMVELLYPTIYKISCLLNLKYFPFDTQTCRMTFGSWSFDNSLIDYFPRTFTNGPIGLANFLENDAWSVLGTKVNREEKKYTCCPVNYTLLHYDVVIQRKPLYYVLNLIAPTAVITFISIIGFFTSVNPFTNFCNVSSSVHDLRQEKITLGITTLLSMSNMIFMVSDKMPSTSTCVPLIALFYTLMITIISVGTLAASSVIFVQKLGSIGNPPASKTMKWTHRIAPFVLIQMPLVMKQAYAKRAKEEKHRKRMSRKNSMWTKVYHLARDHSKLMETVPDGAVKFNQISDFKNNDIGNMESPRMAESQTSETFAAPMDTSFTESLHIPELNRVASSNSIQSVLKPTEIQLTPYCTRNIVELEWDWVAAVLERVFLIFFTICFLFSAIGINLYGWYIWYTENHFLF

ACR-23 [1] = target: T2, ACR-23 (Caenorhabditis elegans, UniProt G5EG88); experiment: as above; type: cell-based
T2 sequence (G5EG88 20-545): T1 sequence (G5EG88 20-545 I301N) with N282I

ACR-23 [2] = target: T2, ACR-23; experiment: two-electrode voltage clamp in Xenopus oocytes; type: cell-based
[3] = substrate: C[N+](C)(C)CC(=O)O; experiment: cells, lysate or membranes; conditions: Na+ and Cl−

Molecule: C[N+](C)(C)CC(=O)O [betaine, N, N, N-trimethylglycine]
EC50 (ACR-23(I301N)): 166 µM
EC50 (ACR-23 [1]): 1.4 mM

two-electrode voltage clamp in Xenopus oocytes; potentiation of 1 mM betaine cur (ACR-23 [2]): 300 pM
Molecule: C[C@](C#N)(COc1cc(C#N)ccc1C(F)(F)F)NC(=O)c1ccc(SC(F)(F)F)cc1 [monepantel]

B1: SNF-3 (Caenorhabditis elegans) (protein)
chain: MGTSEHVPLPTDEAKAKELEQSQHSEEPDRGQWTGKFDFLMSMVAYAVGLGNVWRFPYLCYKNGGGSFLVVYMIFFCLAAVPIFLMEVTVGQYLQKGAMEMWLMCPLFRGVGIGNVVIAFMCIAYFCVIVAWAMFYMISSIAWVFPWETCNNYWNDATCVTGKENFTELARIKALVASAGGHTQTSVEQFWEKRVLHDTGDISEFGGIQWELFFIMAAAWLIVYFALWKGITQARKFVYFCALFPYVLIFILLIRGLTLEGAGTGIYFYLKPNATRLLDTAVWKDAGTQVFYSYGVGFGALIALGSHNKFNHNCFKDAITMCFINGCTSITAGFAVFSILGYMSHVAQKDISEIVKPGVGLAFLAYPEVASNLPMKQVFAVLFFLMITILGLDSQVCMMEGLFTALEDAFPILRKYKKQSLGIFCLFFFCIGIPMVTHSGSHWLTLFDAYGASGYALLFVVFFEVVGLAYGFGAHNIRKALHEMIGVTLPKGIEYVWKFCAPATSLVLFVFCVVYYHPVKYPDGKDFPFWANAFGWFLSSCSMVVIPGYAIYYLFFTNKHLTLKERVRKGLNLDGSFESPAKKNLVNNAEELKFIESSSQ
Km [3]: 320 ± 50 µM
